Measured values as given in ChEMBL document CHEMBL4507284, “Data for DCP probe BI-1230” (2021).

Experiments:
[1] = system: Tyrosine-protein kinase ABL1 (Homo sapiens), P00519 [Q252H]; details: Compound concentration 1000.0 nM
[2] = molecular target: Tyrosine-protein kinase ABL2 (Homo sapiens) (UniProt P42684); details: Compound concentration 1000.0 nM
[3] = molecular target: RAC-gamma serine/threonine-protein kinase (Homo sapiens) (UniProt Q9Y243); details: Compound concentration 1000.0 nM
[4] = molecular target: Ankyrin repeat and protein kinase domain-containing protein 1 (Homo sapiens) (UniProt Q8NFD2); details: Compound concentration 1000.0 nM
[5] = molecular target: Mitogen-activated protein kinase kinase kinase 5 (Homo sapiens) (UniProt Q99683); details: Compound concentration 1000.0 nM
[6] = molecular target: Protein-tyrosine kinase 6 (Homo sapiens) (UniProt Q13882); details: Compound concentration 1000.0 nM
[7] = molecular target: Casein kinase I isoform alpha (Homo sapiens) (UniProt P48729); details: Compound concentration 1000.0 nM
[8] = molecular target: Casein kinase I isoform gamma-3 (Homo sapiens) (UniProt Q9Y6M4); details: Compound concentration 1000.0 nM
[9] = molecular target: Death-associated protein kinase 1 (Homo sapiens) (UniProt P53355); details: Compound concentration 1000.0 nM
[10] = molecular target: Serine/threonine-protein kinase DCLK1 (Homo sapiens) (UniProt O15075); details: Compound concentration 1000.0 nM
[11] = molecular target: Serine/threonine-protein kinase 17B (Homo sapiens) (UniProt O94768); details: Compound concentration 1000.0 nM
[12] = molecular target: Epidermal growth factor receptor (Homo sapiens) (UniProt P00533); details: Compound concentration 1000.0 nM
[13] = system: Epidermal growth factor receptor (Homo sapiens), P00533 [L858R,T790M]; details: Compound concentration 1000.0 nM
[14] = system: Epidermal growth factor receptor (Homo sapiens), P00533 [T790M]; details: Compound concentration 1000.0 nM
[15] = molecular target: Vascular endothelial growth factor receptor 1 (Homo sapiens) (UniProt P17948); details: Compound concentration 1000.0 nM
[16] = system: Receptor-type tyrosine-protein kinase FLT3 (Homo sapiens), P36888 [K663Q]; details: Compound concentration 1000.0 nM
[17] = molecular target: Beta-adrenergic receptor kinase 1 (Homo sapiens) (UniProt P25098); details: Compound concentration 1000.0 nM
[18] = molecular target: G protein-coupled receptor kinase 3 (Homo sapiens) (UniProt P35626); details: Compound concentration 1000.0 nM
[19] = molecular target: Insulin receptor (Homo sapiens) (UniProt P06213); details: Compound concentration 1000.0 nM
[20] = molecular target: Tyrosine-protein kinase ITK/TSK (Homo sapiens) (UniProt Q08881); details: Compound concentration 1000.0 nM
[21] = molecular target: Mitogen-activated protein kinase 9 (Homo sapiens) (UniProt P45984); details: Compound concentration 1000.0 nM
[22] = system: Mast/stem cell growth factor receptor Kit (Homo sapiens), P10721 [D816H]; details: Compound concentration 1000.0 nM
[23] = system: Mast/stem cell growth factor receptor Kit (Homo sapiens), P10721 [L576P]; details: Compound concentration 1000.0 nM
[24] = molecular target: Mast/stem cell growth factor receptor Kit (Homo sapiens) (UniProt P10721); details: Compound concentration 1000.0 nM
[25] = molecular target: Mitogen-activated protein kinase kinase kinase 15 (Homo sapiens) (UniProt Q6ZN16); details: Compound concentration 1000.0 nM
[26] = molecular target: Mitogen-activated protein kinase kinase kinase 2 (Homo sapiens) (UniProt Q9Y2U5); details: Compound concentration 1000.0 nM
[27] = molecular target: Serine/threonine-protein kinase MARK2 (Homo sapiens) (UniProt Q7KZI7); details: Compound concentration 1000.0 nM
[28] = molecular target: Microtubule-associated serine/threonine-protein kinase 1 (Homo sapiens) (UniProt Q9Y2H9); details: Compound concentration 1000.0 nM
[29] = system: Hepatocyte growth factor receptor (Homo sapiens), P08581 [M1250T]; details: Compound concentration 1000.0 nM
[30] = molecular target: MAP kinase-interacting serine/threonine-protein kinase 1 (Homo sapiens) (UniProt Q9BUB5); details: Compound concentration 1000.0 nM
[31] = molecular target: MAP kinase-interacting serine/threonine-protein kinase 2 (Homo sapiens) (UniProt Q9HBH9); details: Compound concentration 1000.0 nM
[32] = molecular target: Serine/threonine-protein kinase 38-like (Homo sapiens) (UniProt Q9Y2H1); details: Compound concentration 1000.0 nM
[33] = molecular target: Serine/threonine-protein kinase Nek7 (Homo sapiens) (UniProt Q8TDX7); details: Compound concentration 1000.0 nM
[34] = molecular target: Serine/threonine-protein kinase PAK 2 (Homo sapiens) (UniProt Q13177); details: Compound concentration 1000.0 nM
[35] = system: Phosphatidylinositol 4,5-bisphosphate 3-kinase catalytic subunit alpha isoform (Homo sapiens), P42336 [E542K]; details: Compound concentration 1000.0 nM
[36] = molecular target: Phosphatidylinositol 4-phosphate 5-kinase type-1 alpha (Homo sapiens) (UniProt Q99755); details: Compound concentration 1000.0 nM
[37] = molecular target: Protein kinase C theta type (Homo sapiens) (UniProt Q04759); details: Compound concentration 1000.0 nM
[38] = molecular target: Receptor-interacting serine/threonine-protein kinase 4 (Homo sapiens) (UniProt P57078); details: Compound concentration 1000.0 nM
[39] = molecular target: Rho-associated protein kinase 2 (Homo sapiens) (UniProt O75116); details: Compound concentration 1000.0 nM
[40] = molecular target: Ribosomal protein S6 kinase alpha-2 (Homo sapiens) (UniProt Q15349); details: Compound concentration 1000.0 nM
[41] = molecular target: Ribosomal protein S6 kinase beta-1 (Homo sapiens) (UniProt P23443); details: Compound concentration 1000.0 nM
[42] = molecular target: SNF-related serine/threonine-protein kinase (Homo sapiens) (UniProt Q9NRH2); details: Compound concentration 1000.0 nM
[43] = molecular target: Serine/threonine-protein kinase 33 (Homo sapiens) (UniProt Q9BYT3); details: Compound concentration 1000.0 nM
[44] = molecular target: Non-receptor tyrosine-protein kinase TYK2 (Homo sapiens) (UniProt P29597); details: Compound concentration 1000.0 nM
[45] = molecular target: Histamine H1 receptor (Homo sapiens) (UniProt P35367); details: Compound concentration 10.0 uM

Sequence of Beta-adrenergic receptor kinase 1 (Homo sapiens) (P25098 whole entry): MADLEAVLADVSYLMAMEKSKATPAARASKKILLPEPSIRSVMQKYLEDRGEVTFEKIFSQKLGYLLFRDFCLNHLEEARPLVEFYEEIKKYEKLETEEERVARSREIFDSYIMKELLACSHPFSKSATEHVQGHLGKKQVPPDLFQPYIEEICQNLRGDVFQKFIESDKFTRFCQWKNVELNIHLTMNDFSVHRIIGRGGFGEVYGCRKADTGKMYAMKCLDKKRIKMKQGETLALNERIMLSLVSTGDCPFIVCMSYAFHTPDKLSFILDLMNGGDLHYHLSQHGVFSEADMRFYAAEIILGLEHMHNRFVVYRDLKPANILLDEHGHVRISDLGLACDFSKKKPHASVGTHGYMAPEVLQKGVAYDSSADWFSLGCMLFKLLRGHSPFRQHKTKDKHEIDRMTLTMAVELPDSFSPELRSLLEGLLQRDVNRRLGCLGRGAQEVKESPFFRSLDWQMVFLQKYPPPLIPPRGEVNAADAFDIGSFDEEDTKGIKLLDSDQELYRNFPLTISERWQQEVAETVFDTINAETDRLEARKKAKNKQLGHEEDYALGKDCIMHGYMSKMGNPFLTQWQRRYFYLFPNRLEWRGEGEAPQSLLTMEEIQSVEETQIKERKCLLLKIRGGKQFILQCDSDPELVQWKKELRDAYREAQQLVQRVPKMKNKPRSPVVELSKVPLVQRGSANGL
Sequence of Protein kinase C theta type (Homo sapiens) (Q04759 whole entry, looked up): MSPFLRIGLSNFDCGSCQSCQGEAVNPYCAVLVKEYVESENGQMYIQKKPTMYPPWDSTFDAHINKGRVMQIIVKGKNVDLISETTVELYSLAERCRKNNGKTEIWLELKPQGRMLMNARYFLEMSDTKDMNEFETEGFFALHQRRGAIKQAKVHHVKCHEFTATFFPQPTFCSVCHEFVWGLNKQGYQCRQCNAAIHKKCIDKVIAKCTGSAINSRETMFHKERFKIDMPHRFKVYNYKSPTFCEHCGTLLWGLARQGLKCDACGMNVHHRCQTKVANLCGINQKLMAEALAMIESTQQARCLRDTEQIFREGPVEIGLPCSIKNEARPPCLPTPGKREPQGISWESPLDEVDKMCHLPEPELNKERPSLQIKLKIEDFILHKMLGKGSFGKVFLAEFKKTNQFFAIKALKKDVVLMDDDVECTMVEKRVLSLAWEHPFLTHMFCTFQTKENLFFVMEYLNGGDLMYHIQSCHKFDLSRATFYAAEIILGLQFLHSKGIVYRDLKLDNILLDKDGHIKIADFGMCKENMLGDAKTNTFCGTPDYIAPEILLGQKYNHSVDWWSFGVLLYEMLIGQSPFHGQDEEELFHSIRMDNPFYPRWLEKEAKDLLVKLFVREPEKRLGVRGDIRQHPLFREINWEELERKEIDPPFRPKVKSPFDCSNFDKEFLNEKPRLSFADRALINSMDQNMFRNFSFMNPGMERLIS
Sequence of Ribosomal protein S6 kinase alpha-2 (Homo sapiens) (Q15349 whole entry): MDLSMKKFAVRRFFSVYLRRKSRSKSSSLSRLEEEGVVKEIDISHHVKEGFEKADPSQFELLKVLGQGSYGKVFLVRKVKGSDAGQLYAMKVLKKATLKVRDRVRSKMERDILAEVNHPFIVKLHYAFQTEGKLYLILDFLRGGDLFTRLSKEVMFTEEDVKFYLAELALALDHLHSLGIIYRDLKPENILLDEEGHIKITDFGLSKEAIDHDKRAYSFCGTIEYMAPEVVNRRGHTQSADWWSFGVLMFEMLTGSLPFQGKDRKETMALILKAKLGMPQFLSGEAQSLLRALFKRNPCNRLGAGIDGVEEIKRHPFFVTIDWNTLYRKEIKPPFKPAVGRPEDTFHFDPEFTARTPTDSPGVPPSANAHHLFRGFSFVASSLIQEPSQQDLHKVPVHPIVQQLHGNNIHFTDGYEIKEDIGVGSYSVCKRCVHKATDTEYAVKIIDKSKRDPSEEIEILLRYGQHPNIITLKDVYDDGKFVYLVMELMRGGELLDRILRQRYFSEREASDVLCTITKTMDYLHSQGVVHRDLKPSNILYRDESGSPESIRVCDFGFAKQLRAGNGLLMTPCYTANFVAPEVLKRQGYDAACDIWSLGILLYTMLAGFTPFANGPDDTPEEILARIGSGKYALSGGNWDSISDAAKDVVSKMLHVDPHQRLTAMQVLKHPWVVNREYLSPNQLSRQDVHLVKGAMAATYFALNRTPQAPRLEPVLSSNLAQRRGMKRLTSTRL
Sequence of Mitogen-activated protein kinase kinase kinase 2 (Homo sapiens) (Q9Y2U5 whole entry): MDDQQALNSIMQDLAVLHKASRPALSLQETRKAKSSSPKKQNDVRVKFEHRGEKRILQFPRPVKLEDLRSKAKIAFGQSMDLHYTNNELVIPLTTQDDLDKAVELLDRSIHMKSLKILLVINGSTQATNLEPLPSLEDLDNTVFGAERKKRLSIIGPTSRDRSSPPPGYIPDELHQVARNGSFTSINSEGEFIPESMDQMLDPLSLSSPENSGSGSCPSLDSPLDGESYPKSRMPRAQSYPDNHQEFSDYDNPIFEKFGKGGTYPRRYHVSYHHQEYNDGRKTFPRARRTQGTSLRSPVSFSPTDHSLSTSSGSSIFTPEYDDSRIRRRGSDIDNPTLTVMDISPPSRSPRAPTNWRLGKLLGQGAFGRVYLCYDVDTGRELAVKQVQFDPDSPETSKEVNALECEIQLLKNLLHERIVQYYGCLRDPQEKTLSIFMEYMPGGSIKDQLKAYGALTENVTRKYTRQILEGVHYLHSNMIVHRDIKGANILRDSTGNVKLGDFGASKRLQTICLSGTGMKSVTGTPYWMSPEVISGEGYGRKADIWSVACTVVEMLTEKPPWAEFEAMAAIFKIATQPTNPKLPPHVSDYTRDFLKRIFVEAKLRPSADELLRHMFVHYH
Sequence of MAP kinase-interacting serine/threonine-protein kinase 2 (Homo sapiens) (Q9HBH9 whole entry, looked up): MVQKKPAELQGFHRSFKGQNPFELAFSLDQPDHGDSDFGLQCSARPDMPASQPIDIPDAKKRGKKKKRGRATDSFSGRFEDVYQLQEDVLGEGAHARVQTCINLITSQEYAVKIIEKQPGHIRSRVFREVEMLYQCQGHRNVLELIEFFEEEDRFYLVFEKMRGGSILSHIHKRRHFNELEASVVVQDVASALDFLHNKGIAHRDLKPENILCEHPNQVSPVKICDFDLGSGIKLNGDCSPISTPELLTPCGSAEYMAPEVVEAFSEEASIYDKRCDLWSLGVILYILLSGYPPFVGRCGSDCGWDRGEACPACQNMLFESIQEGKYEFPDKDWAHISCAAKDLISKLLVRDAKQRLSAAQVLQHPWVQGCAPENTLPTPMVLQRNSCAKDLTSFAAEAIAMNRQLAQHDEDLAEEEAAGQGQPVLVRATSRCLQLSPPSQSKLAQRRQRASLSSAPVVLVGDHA
Sequence of Mast/stem cell growth factor receptor Kit (Homo sapiens), P10721 [L576P] (P10721 whole entry L576P): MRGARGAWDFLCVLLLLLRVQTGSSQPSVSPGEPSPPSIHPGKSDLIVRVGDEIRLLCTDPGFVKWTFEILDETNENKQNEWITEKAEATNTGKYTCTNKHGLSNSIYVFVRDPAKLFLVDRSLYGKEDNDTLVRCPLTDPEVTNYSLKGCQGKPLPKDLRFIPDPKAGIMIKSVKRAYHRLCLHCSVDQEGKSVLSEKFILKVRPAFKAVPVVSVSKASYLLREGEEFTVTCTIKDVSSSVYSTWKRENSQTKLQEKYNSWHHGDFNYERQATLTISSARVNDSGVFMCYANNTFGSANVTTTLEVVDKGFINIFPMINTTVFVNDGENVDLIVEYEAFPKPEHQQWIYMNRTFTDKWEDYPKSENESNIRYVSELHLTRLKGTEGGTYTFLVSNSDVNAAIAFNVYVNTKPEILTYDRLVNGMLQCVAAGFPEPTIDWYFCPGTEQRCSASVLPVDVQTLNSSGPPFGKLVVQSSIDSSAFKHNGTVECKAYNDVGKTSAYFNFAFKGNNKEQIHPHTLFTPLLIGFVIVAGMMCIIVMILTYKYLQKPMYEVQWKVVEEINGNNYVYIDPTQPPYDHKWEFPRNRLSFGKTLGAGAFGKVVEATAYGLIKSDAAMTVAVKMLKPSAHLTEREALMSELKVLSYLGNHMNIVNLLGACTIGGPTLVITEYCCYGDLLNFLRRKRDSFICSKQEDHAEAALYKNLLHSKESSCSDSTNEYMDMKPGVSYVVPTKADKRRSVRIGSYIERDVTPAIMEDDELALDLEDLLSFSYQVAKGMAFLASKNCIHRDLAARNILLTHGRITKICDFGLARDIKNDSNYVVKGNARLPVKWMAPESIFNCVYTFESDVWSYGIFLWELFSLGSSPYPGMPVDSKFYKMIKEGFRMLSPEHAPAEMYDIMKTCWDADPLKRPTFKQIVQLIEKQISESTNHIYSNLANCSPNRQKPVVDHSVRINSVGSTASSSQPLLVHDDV
Sequence of Serine/threonine-protein kinase MARK2 (Homo sapiens) (Q7KZI7 whole entry): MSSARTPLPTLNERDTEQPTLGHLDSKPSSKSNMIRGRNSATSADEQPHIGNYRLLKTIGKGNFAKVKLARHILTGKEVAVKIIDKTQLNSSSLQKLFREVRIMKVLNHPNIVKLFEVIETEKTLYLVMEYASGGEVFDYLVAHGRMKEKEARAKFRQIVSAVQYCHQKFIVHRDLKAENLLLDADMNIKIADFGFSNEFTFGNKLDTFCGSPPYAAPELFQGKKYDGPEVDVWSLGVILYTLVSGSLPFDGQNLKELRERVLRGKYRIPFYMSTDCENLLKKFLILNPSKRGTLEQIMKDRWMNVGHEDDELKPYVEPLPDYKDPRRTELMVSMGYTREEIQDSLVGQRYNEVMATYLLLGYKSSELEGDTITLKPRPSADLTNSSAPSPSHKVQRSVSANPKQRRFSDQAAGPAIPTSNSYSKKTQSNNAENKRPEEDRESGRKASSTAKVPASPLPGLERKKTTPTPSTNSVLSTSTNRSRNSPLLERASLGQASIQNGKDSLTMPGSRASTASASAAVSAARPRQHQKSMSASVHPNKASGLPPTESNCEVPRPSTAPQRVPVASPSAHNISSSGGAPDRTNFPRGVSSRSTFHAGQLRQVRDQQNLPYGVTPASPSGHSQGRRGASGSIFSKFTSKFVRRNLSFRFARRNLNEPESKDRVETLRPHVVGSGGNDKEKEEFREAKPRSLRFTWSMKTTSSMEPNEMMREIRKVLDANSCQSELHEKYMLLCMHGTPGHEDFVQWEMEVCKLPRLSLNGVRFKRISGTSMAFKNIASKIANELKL

COc1ccc2c(O[C@@H]3C[C@H]4C(=O)N[C@]5(C(=O)O)CC5/C=C\CCCCC[C@H](NC(=O)OC5CCCC5)C(=O)N4C3)cc(-c3csc(NC(=O)C(C)C)n3)nc2c1C (stereo not given in full) [BI 1230]
residual activity [1]: 80%
residual activity [2]: 98%
residual activity [3]: 93%
residual activity [4]: 79%
residual activity [5]: 93%
residual activity [6]: 97%
residual activity [7]: 68%
residual activity [8]: 100%
residual activity [9]: 100%
residual activity [10]: 76%
residual activity [11]: 88%
residual activity [12]: 92%
residual activity [13]: 100%
residual activity [14]: 85%
residual activity [15]: 95%
residual activity [16]: 81%
residual activity [17]: 83%
residual activity [18]: 99%
residual activity [19]: 94%
residual activity [20]: 95%
residual activity [21]: 71%
residual activity [22]: 86%
residual activity [23]: 90%
residual activity [24]: 72%
residual activity [25]: 70%
residual activity [26]: 100%
residual activity [27]: 100%
residual activity [28]: 98%
residual activity [29]: 100%
residual activity [30]: 79%
residual activity [31]: 70%
residual activity [32]: 43%
residual activity [33]: 100%
residual activity [34]: 91%
residual activity [35]: 71%
residual activity [36]: 98%
residual activity [37]: 100%
residual activity [38]: 65%
residual activity [39]: 95%
residual activity [40]: 100%
residual activity [41]: 93%
residual activity [42]: 80%
residual activity [43]: 54%
residual activity [44]: 100%
inhibition [45]: 31.5%

O=C(N[C@H]1CCCCC/C=C\C2C[C@@]2(C(=O)O)NC(=O)[C@@H]2C[C@@H](Oc3ccncc3)CN2C1=O)OC1CCCC1 (stereo not given in full) [BI 1675]
residual activity [1]: 85%
residual activity [2]: 100%
residual activity [3]: 94%
residual activity [4]: 100%
residual activity [5]: 91%
residual activity [6]: 100%
residual activity [7]: 80%
residual activity [8]: 100%
residual activity [9]: 83%
residual activity [10]: 97%
residual activity [11]: 69%
residual activity [12]: 99%
residual activity [13]: 98%
residual activity [14]: 91%
residual activity [15]: 100%
residual activity [16]: 85%
residual activity [17]: 51%
residual activity [18]: 100%
residual activity [19]: 100%
residual activity [20]: 100%
residual activity [21]: 94%
residual activity [22]: 100%
residual activity [23]: 91%
residual activity [24]: 84%
residual activity [25]: 68%
residual activity [26]: 69%
residual activity [27]: 81%
residual activity [28]: 82%
residual activity [29]: 92%
residual activity [30]: 79%
residual activity [31]: 75%
residual activity [32]: 80%
residual activity [33]: 100%
residual activity [34]: 79%
residual activity [35]: 96%
residual activity [36]: 99%
residual activity [37]: 100%
residual activity [38]: 94%
residual activity [39]: 100%
residual activity [40]: 99%
residual activity [41]: 89%
residual activity [42]: 97%
residual activity [43]: 89%
residual activity [44]: 98%
inhibition [45]: 23.9%
